Laboratory results as given in patent publication US11370774B2, “Substituted benzofuran, benzopyrrole, benzothiophene, and structurally related complement inhibitors” (BioCryst Pharmaceuticals, Inc., priority 2018, dated 2022).

Biological target: Factor D (Homo sapiens (Human), UniProt P00746)
Experiment: Factor D esterolytic assay (Z-Lys-SBzl substrate, DTNB, 405 nm)
Assay type: biochemical
Settings: Z-Lys-SBzl 1.29 mM, pH 7.5, 10% DMSO, tested a minimum of three times, read-out: Measured Ki (IC50) Value for Compounds: IC50
Outline: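 Thioester hydrolysis (Z-Lys-SBzl, 1.29 mM) by human Factor D ([…]) detected through DTNB color at 405 nm over 600 sec, minus 690 nm background. Buffer: 100 mM HEPES pH 7.5, 500 mM NaCl, 10% DMSO; optional room-temperature preincubation before substrate. IC50 derived from percent rate inhibition; at least three runs.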

Factor D, sequence (P00746 26-253): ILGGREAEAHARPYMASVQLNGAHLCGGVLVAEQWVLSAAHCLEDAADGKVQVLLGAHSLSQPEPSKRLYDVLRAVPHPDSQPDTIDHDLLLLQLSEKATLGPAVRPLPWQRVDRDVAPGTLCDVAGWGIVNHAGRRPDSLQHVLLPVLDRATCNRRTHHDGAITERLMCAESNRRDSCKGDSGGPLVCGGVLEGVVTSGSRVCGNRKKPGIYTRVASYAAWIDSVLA

| Compound | IC50 [nM] |
| --- | --- |
| COc1ccc(C(SC)C(=O)O)c(OCc2cc(-c3cccc(CN)c3)c3occc3c2)c1 (centres unmarked) [Compound 321f, 2-(2-((7-(3-(aminomethyl)phenyl)benzofuran-5-yl)methoxy)-4-methoxyphenyl)-2-(methylthio)acetic acid] | < 1000 |
| Cc1cc(-c2ccc(CC(=O)O)c(OCc3cc(-c4cccc(CN)c4)c4occc4c3)c2)cnc1F [Compound 322c, 2-(2-((7-(3-(aminomethyl)phenyl)benzofuran-5-yl)methoxy)-4-(6-fluoro-5-methylpyridin-3-yl)phenyl)acetic acid] | < 1000 |
| COc1ncc(-c2ccc(CC(=O)O)c(OCc3cc(-c4cccc(CN)c4)c4occc4c3)c2)cc1C [Compound 322d, 2-(2-((7-(3-(aminomethyl)phenyl)benzofuran-5-yl)methoxy)-4-(6-methoxy-5-methylpyridin-3-yl)phenyl)acetic acid] | < 1000 |
| NCc1cccc(-c2cc(COc3cc(-c4ccncc4)ccc3CC(=O)O)cc3ccoc23)c1 [Compound 323c, 2-(2-((7-(3-(aminomethyl)phenyl)benzofuran-5-yl)methoxy)-4-(pyridin-4-yl)phenyl)acetic acid] | < 1000 |
| N#Cc1ccc(-c2ccc(CC(=O)O)c(OCc3cc(-c4cccc(CN)c4)c4occc4c3)c2)s1 [Compound 324c, 2-(2-((7-(3-(aminomethyl)phenyl)benzofuran-5-yl)methoxy)-4-(5-cyanothiophen-2-yl)phenyl)acetic acid] | < 1000 |
| NCc1cccc(-c2cc(COc3cc(-c4ccc(C(=O)O)s4)ccc3CC(=O)O)cc3ccoc23)c1 [Compound 325a, 5-(3-((7-(3-(aminomethyl)phenyl)benzofuran-5-yl)methoxy)-4-(carboxymethyl)phenyl)thiophene-2-carboxylic acid] | < 1000 |
| NCc1cccc(-c2cc(COc3cccc(F)c3CC(=O)O)cc3ccoc23)c1 [Compound 328f, 2-(2-((7-(3-(aminomethyl)phenyl)benzofuran-5-yl)methoxy)-6-fluorophenyl)acetic acid] | < 1000 |
| NCc1cc(-c2cc(COc3ccc(F)cc3CC(=O)O)cc3ccoc23)ccn1 [Compound 329b, 2-(2-((7-(2-(aminomethyl)pyridin-4-yl)benzofuran-5-yl)methoxy)-5-fluorophenyl)acetic acid] | < 1000 |
| CC(=O)c1ccc(OCc2cc(-c3cccc(CN)c3)c3occc3c2)c(CC(=O)O)c1 [Compound 330c, 2-(5-acetyl-2-((7-(3-(aminomethyl)phenyl)benzofuran-5-yl)methoxy)phenyl)acetic acid] | < 1000 |
| NCc1cccc(-c2cc(COc3ccc(CN)cc3CC(=O)O)cc3ccoc23)c1 [Compound 331c, 2-(5-(aminomethyl)-2-((7-(3-(aminomethyl)phenyl)benzofuran-5-yl)methoxy)phenyl)acetic acid] | < 1000 |
| NCc1cccc(-c2cc(COc3ccccc3CC(=O)O)cc3[nH]c(C(F)(F)F)cc23)c1 [Compound 332e, 2-(2-((4-(3-(aminomethyl)phenyl)-2-(trifluoromethyl)-1H-indol-6-yl)methoxy)phenyl)acetic acid] | < 1000 |
| Cc1oc2c(-c3cccc(CN)c3)cc(COc3ccccc3CC(=O)O)cc2c1C [Compound 333g, 2-(2-((7-(3-(aminomethyl)phenyl)-2,3-dimethylbenzofuran-5-yl)methoxy)phenyl)acetic acid] | < 1000 |
| COc1c(C(=O)Nc2ccccc2CC(=O)O)cc(-c2ccnc(CN)c2F)c2occc12 [Compound 334d, 2-(2-(7-(2-(aminomethyl)-3-fluoropyridin-4-yl)-4-methoxybenzofuran-5-carboxamido)phenyl)acetic acid] | 1000 to 10000 |
| NCc1cc(-c2cc(COc3ccccc3CC(=O)O)cc3ccoc23)c2occc2c1 [Compound 335d, 2-(2-((5′-(aminomethyl)-[7,7′-bibenzofuran]-5-yl)methoxy)phenyl)acetic acid] | > 10000 |
| NCc1cc(-c2cc(COc3ccccc3CC(=O)O)cc3sc(Cl)cc23)ccn1 [Compound 336c, 2-(2-((4-(2-(aminomethyl)pyridin-4-yl)-2-chlorobenzo[b]thiophen-6-yl)methoxy)phenyl)acetic acid] | < 1000 |
| NCc1cccc(-c2cc(COc3ccccc3CC(=O)O)cc3sc(Cl)cc23)c1F [Compound 337b, 2-(2-((4-(3-(aminomethyl)-2-fluorophenyl)-2-chlorobenzo[b]thiophen-6-yl)methoxy)phenyl)acetic acid] | < 1000 |
| NCc1nccc(-c2cc(COc3ccccc3CC(=O)O)cc3sc(Cl)cc23)c1F [Compound 338c, 2-(2-((4-(2-(aminomethyl)-3-fluoropyridin-4-yl)-2-chlorobenzo[b]thiophen-6-yl)methoxy)phenyl)acetic acid] | < 1000 |
| NCc1cc(-c2cc(COc3ccccc3CC(=O)O)cc3ccoc23)cs1 [Compound 339c, 2-(2-((7-(5-(aminomethyl)thiophen-3-yl)benzofuran-5-yl)methoxy)phenyl)acetic acid] | < 1000 |
| Nc1c[nH]c2c(-c3cc(COc4ccccc4CC(=O)O)cc4ccoc34)cccc12 [Compound 341e, 2-(2-((7-(3-amino-1H-indol-7-yl)benzofuran-5-yl)methoxy)phenyl)acetic acid] | < 1000 |
| Cc1ccc(CC(=O)O)c(OCc2cc(-c3ccnc(CN)c3F)c3occc3c2F)c1 [Compound 342e, 2-(2-((7-(2-(aminomethyl)-3-fluoropyridin-4-yl)-4-fluorobenzofuran-5-yl)methoxy)-4-methylphenyl)acetic acid] | < 1000 |
| Cc1ccc(CC(=O)O)c(OCc2cc(-c3ccnc(CN)c3F)c3occ(C(F)(F)F)c3c2)c1 [Compound 343e, 2-(2-((7-(2-(aminomethyl)-3-fluoropyridin-4-yl)-3-(trifluoromethyl)benzofuran-5-yl)methoxy)-4-methylphenyl)acetic acid] | < 1000 |
| COCCOCCOCCOCc1cc2cc(COc3ccccc3CC(=O)O)cc(-c3cccc(CN)c3)c2o1 [Compound 344f, 2-(2-((7-(3-(aminomethyl)phenyl)-2-(2,5,8,11-tetraoxadodecyl)benzofuran-5-yl)methoxy)phenyl)acetic acid] | < 1000 |
| Cc1ccc(CC(=O)O)c(OCc2cc(-c3cccc(CN)c3)c3occ(C(F)(F)F)c3c2)c1 [Compound 345b, 2-(2-((7-(3-(aminomethyl)phenyl)-3-(trifluoromethyl)benzofuran-5-yl)methoxy)-4-methylphenyl)acetic acid] | < 1000 |
| Cc1ccc(CC(=O)O)c(OCc2cc(-c3ccnc(CN)c3)c3occc3c2F)c1 [Compound 346c, 2-(2-((7-(2-(aminomethyl)pyridin-4-yl)-4-fluorobenzofuran-5-yl)methoxy)-4-methylphenyl)acetic acid] | < 1000 |
| Cc1ccc(CC(=O)O)c(OCc2cc(-c3cccc(CN)c3)c3occc3c2F)c1 [Compound 347b, 2-(2-((7-(3-(aminomethyl)phenyl)-4-fluorobenzofuran-5-yl)methoxy)-4-methylphenyl)acetic acid] | < 1000 |
| Cc1ccc(CC(=O)O)c(OCc2cc(-c3cccc(CN)c3F)c3occc3c2F)c1 [Compound 348b, 2-(2-((7-(3-(aminomethyl)-2-fluorophenyl)-4-fluorobenzofuran-5-yl)methoxy)-4-methylphenyl)acetic acid] | < 1000 |
